Experiments:
[1] = tested on: isolated rabbit thoracic aorta preparations; assay: Assay on vascular tone (vessel relaxation assay); assay type: cell-based; settings: Oryctolagus cuniculus; aortic rings precontracted with noradrenaline 1 μM, functional endothelium
Experimental: The ability of the compounds of the invention to induce vasorelaxation in comparison to native angiotensin II receptor blockers (ARBs) was tested in vitro in isolated rabbit thoracic aorta preparations (Wanstall J. C. et al., Br. J. Pharmacol., 134:463-472, 2001). Male New Zealand rabbits were anaesthetized with thiopental-Na (50 mg/kg, iv), sacrificed by exsanguinations and then the thorax was opened and the aorta dissected. Aortic ring preparations (4 mm in length) were set up in physiological salt solution (PSS) at 37° C. in small organ chambers (5 ml). The composition of PSS was (mM): NaCl 130, NaHCO3 14.9, KH2PO4 1.2, MgSO4 1.2, HEPES 10, CaCl2, ascorbic acid […] and glucose 1.1 (95% O2/5% CO2; pH 7.4). Each ring was mounted under 2 g passive tension. Isometric tension was recorded with a Grass transducer (Grass FT03) attached to a BIOPAC MP150 System. Preparations were allowed to equilibrate for 1 h, and then contracted submaximally with noradrenaline (NA, 1 μM) and, when the contraction was stable, acetylcholine (ACh, 10 μM) was added. A relaxant response to ACh indicated the presence of a functional endothelium. […] When a stable precontraction was reached, a cumulative concentration-response curve to either of the vasorelaxant agents was obtained in the presence of a functional endothelium. Each arterial ring was exposed to only one combination of inhibitor and vasorelaxant. Moreover, the effect of the soluble guanylyl cyclase inhibitor ODQ (1-H-(1,2,4)-oxadiazol(4,3-a)quinoxalin-1-one) on vasorelaxation elicited by the compounds was examined preincubating the aortic rings with ODQ (10 μM) for 20 min.
Responses to relaxing agents are expressed as a percentage of residual contraction and plotted against concentration of test compound. EC50 values (where EC50 is the concentration producing 50% of the maximum relaxation to the test compound) were interpolated from these plots. During the experimental period, the plateau obtained with NA was stable without significant spontaneous loss of contraction in the aortic rings.
Furthermore, in experiments performed in the presence of ODQ (10 μM), the vasorelaxant responses to tested compounds were inhibited.

[2] = tested on: conscious spontaneously hypertensive rats (SHRs); assay: Assay for antihypertensive activity (in vivo); set-up: species or system rat; settings: for BP lowering compared to Compound A: SHR, same dose (10 mg/kg) or inferior dose (3 mg/kg)
Experimental: The ability of the compounds of the invention to decrease blood pressure was evaluated in conscious spontaneously hypertensive rats (SHRs). SHRs (250-300 g) received a single oral dose of tested compounds. Systolic blood pressure (SBP) and heart rate were monitored by telemetry for 24 hours after dosing. SBP was evaluated before (baseline) and at different time points (i.e. 2-6, 12, 21-hours) following treatment by oral administration of the compounds. The data were processed both as the absolute value or as a delta between the absolute value and its own baseline.
The Dataquest IV telemetry system (Data Sciences International) was used for measurement of systolic pressure, diastolic pressure, mean arterial pressure, heart rate, and motor activity. The monitoring system consists of a transmitter (radio frequency transducer model TA11PA), receiver panel, consolidation matrix, and personal computer with accompanying software. Before the device was implanted, calibrations were verified to be accurate within ±3 mmHg. Rats were anesthetized with ketamine/xylazine/acepromazine, and the flexible catheter of the transmitter was surgically secured in the abdominal aorta just below the renal arteries. The transmitter was sutured subcutaneously. Rats were housed in individual cages after the operation. Each cage was placed over the receiver panel that was connected to the personal computer for data acquisition. The rats were unrestrained and free to move within their cages. Hemodynamic data were sampled every 2 minutes for 10 seconds.

[3] = tested on: Reactive Nitrogen Species (RNS); assay: Assay for Reactive Nitrogen Species (RNS) (DAN assay); assay type: in vivo, rat; set-up: RNS levels: unit not given here; settings: for RNS levels: EDTA-treated rat plasma
Text: RNS were detected as S-nitrosothiols (RNSOs) in EDTA-treated rat plasma using an HPLC fluorescent assay based on the method of Kostka and Park (Methods Enzymol. 1999, 301, 227-235). The method is based on the detection of fluorescent 2,3-naphthotriazole (NAT) formed in the reaction between acidified 2,3-diaminonaphthalene (DAN) and the nitrosonium moiety of RSNOs released by HgCl2-mediated breakdown of the S—NO bond. The reaction mixture was chromatographed by reversed phase HPLC, and the fluorescent signal of the resolved NAT peak was quantified.
Plasma (20 μL) was first diluted 1:1 in H2O (20 μL) in a black polypropylene untreated microtiter plate. DAN reagent (100 μL per well, 100 μM DAN in 0.1 N HCl, 4 mM HgCl2) was added, and the plate was immediately sealed with an opaque plate mat, vortexed, and incubated in the dark for 10 min. Plates were centrifuged (2000×g, 5 min) and chilled to 4° C. before HPLC analysis. HPLC was carried out on an Agilent 1200 system using a chilled autosampler (4° C.). Samples were chromatographed on a C8 column (Zorbax Eclipse XDB-C8, 4.6×150 mm, 5 μm) with isocratic elution using a mobile phase of 67% MeOH, 0.1% NH4OAc and a flow rate of 2 mL/min. NAT fluorescence was monitored at 450 nm using an excitation wavelength of 360 nm. Calibration curves were prepared using NaNO2 in control plasma. Typical range of quantitation was 0.1 μM to 30 μM NO2.

[4] = 3 mpk single oral dose, 21-24 h
[5] = 10 mpk single oral dose, 21-24 h

Row | SMILES | EC50 [1] | BP lowering compared to Compound A [2] | Δ SBP in SHR ([2]; 10 mpk single oral dose, 2-6 h) | Δ SBP in SHR [2, 5] | Δ SBP in SHR ([2]; 10 mpk single oral dose, 12 h) | also measured
1 | CCCCc1nc(Cl)c(C(=O)OC(C)OC(=O)OCCC(C)O[N+](=O)[O-])n1Cc1ccc(-c2ccccc2-c2nn[nH]n2)cc1 (centres unmarked) [Example 5, 1-[({[3-(nitrooxy)butyl]oxy}carbonyl)oxy]ethyl 2-butyl-4-chloro-1-{[2′-(1H-tetrazol-5-yl)biphenyl-4-yl]methyl}-1H-imidazole-5-carboxylate] | 22 µM |  |  |  |  | 
2 | CCOc1nc2cccc(C(=O)OC(C)(C)OC(=O)OCCCCC(C)O[N+](=O)[O-])c2n1Cc1ccc(-c2ccccc2-c2nnn[nH]2)cc1 (centres unmarked) [Example 2] | 31 µM | extended peak effect and duration of action |  |  |  | Δ SBP in SHR ([2]; 3 mpk single oral dose, 2-6 h): −30 mmHg; Δ SBP in SHR [2, 4]: −36 mmHg; Δ SBP in SHR ([2]; 3 mpk single oral dose, 12 h): −34 mmHg
3 | CCCCc1nc(Cl)c(C(=O)OC(C)OC(=O)CCCC(C)O[N+](=O)[O-])n1Cc1ccc(-c2ccccc2-c2nn[nH]n2)cc1 (centres unmarked) [Example 8] | 40 µM | extended peak effect and duration of action | −31 mmHg | −28 mmHg | −29 mmHg | 
4 | CCCCc1nc(Cl)c(C(=O)OC(C)OC(=O)OCCCCC(C)O[N+](=O)[O-])n1Cc1ccc(-c2ccccc2-c2nn[nH]n2)cc1 (centres unmarked) [Example 4, 1-[({[5-(nitrooxy)hexyl]oxy}carbonyl)oxy]ethyl 2-butyl-4-chloro-1-{[2′-(1H-tetrazol-5-yl)biphenyl-4-yl]methyl}-1H-imidazole-5-carboxylate] | 27 µM | extended peak effect and duration of action | −10 mmHg | −30 mmHg | −30 mmHg | RNS levels ([3]; time 0 h): 0.9; RNS levels ([3]; time 1 h): 6.9; RNS levels ([3]; time 3 h): 6.9; RNS levels ([3]; time 6 h): 2.4; RNS levels ([3]; time 24 h): 1.6; RNS levels compared to Compound A ([3]; rat plasma): improved RNS levels
5 | CCCCc1nc(Cl)c(C(=O)OC(C)OC(=O)OCC[C@@H](C)O[N+](=O)[O-])n1Cc1ccc(-c2ccccc2-c2nn[nH]n2)cc1 (stereo partly drawn) [Example 6, 1-[({[(3R)-3-(nitrooxy)butyl]oxy}carbonyl)oxy]ethyl 2-butyl-4-chloro-1-{[2′-(1H-tetrazol-5-yl)biphenyl-4-yl]methyl}-1H-imidazole-5-carboxylate] | 23 µM | extended peak effect and duration of action | −16 mmHg | −17 mmHg | −21 mmHg | 
6 | CCCCc1nc(Cl)c(C(=O)OC(C)OC(=O)OCC[C@H](C)O[N+](=O)[O-])n1Cc1ccc(-c2ccccc2-c2nn[nH]n2)cc1 (stereo partly drawn) [Example 7, 1-[({[(3S)-3-(nitrooxy)butyl]oxy}carbonyl)oxy]ethyl 2-butyl-4-chloro-1-{[2′-(1H-tetrazol-5-yl)biphenyl-4-yl]methyl}-1H-imidazole-5-carboxylate] | 26 µM |  |  |  |  | 
7 | CCCCc1nc(Cl)c(C(=O)OCCOCCO[N+](=O)[O-])n1Cc1ccc(-c2ccccc2-c2nn[nH]n2)cc1 [Compound A, reference compound] |  |  | −15 mmHg | −8 mmHg | −12 mmHg | RNS levels ([3]; time 0 h): 0.4; RNS levels ([3]; time 1 h): 2.8; RNS levels ([3]; time 3 h): 1.4; RNS levels ([3]; time 6 h): 0.9; RNS levels ([3]; time 24 h): 0

Second part, led by results:

Row | EC50 [1] | SMILES | BP lowering compared to Compound A [2] | Δ SBP in SHR ([2]; 10 mpk single oral dose, 2-6 h) | Δ SBP in SHR [2, 5] | Δ SBP in SHR ([2]; 10 mpk single oral dose, 12 h) | also measured
8 | 43 µM | CCOc1nc2cccc(C(=O)OC(C)OC(=O)CCCC(C)O[N+](=O)[O-])c2n1Cc1ccc(-c2ccccc2-c2nn[nH]n2)cc1 (centres unmarked) [Example 9] | extended peak effect and duration of action |  |  |  | Δ SBP in SHR ([2]; 3 mpk single oral dose, 2-6 h): −43 mmHg; Δ SBP in SHR [2, 4]: −50 mmHg; Δ SBP in SHR ([2]; 3 mpk single oral dose, 12 h): −49 mmHg
9 | 5.3 µM | CCCCc1nc(Cl)c(COC(=O)C23CC4CC(CC(O[N+](=O)[O-])(C4)C2)C3)n1Cc1ccc(-c2ccccc2-c2nnn[nH]2)cc1 [Example 10, (2-butyl-4-chloro-1-{[2′-(1H-tetrazol-5-yl)biphenyl-4-yl]methyl}-1H-imidazol-5-yl)methyl 3-(nitrooxy)adamantane-1-carboxylate] |  |  |  |  | 
10 | 39 µM | CCCCc1nc(Cl)c(C(=O)OC(C)OC(=O)OCCCC[C@H](C)O[N+](=O)[O-])n1Cc1ccc(-c2ccccc2-c2nn[nH]n2)cc1 (stereo partly drawn) [Example 3, 1-[({[(5S)-5-(nitrooxy)hexyl]oxy}carbonyl)oxy]ethyl 2-butyl-4-chloro-1-{[2′-(1H-tetrazol-5-yl)biphenyl-4-yl]methyl}-1H-imidazole-5-carboxylate] |  |  |  |  | 
11 | 22 µM | CCCCc1nc(Cl)c(C(=O)OC(C)OC(=O)OCCCC[C@@H](C)O[N+](=O)[O-])n1Cc1ccc(-c2ccccc2-c2nnn[nH]2)cc1 (stereo partly drawn) [Example 1, 1-[({[(R)-5-(nitrooxy)hexyl]oxy}carbonyl)oxy]ethyl 2-butyl-4-chloro-1-{[2′-(1H-tetrazol-5-yl)biphenyl-4-yl]methyl}-1H-imidazole-5-carboxylate] |  |  |  |  | 

— US20100311800A1, “ANGIOTENSIN II RECEPTOR ANTAGONISTS” (priority 2008, published 2010)
